According to US7943137B2, “FPRL1 ligands and use thereof” (Takeda Pharmaceutical Company Limited, priority 2002, dated 2011):
Where a SMILES comes first, the peptide text is derived from it. Where no end group is shown, it is not given here. The star is where a group is joined. For = O=C*

Columns and labels:
FPRL1-GFP fusion protein = assay: Intracellular transition (internalization) of FPRL1-GFP fusion protein expressed in CHO cells; assay type: cell-based, human; settings: 37° C., one hour, Cellomics ArrayScan
Procedure: CHO cell line, in which a protein, wherein GFP (Green Fluorescent Protein) is fused to the C-terminus of human FPRL1, is stably expressed, was established using an expression plasmid for animal cells by publicly known method. For assay of intracellular transition of the protein, the cells at growth phase was seeded at the concentration of 40000 cells/well on 96-well plate (Packard, View-Plate™-96, Black), and cultured for overnight at 37° C. under 5% CO2. Firstly, the cells into the well were washed with assay buffer (HBSS (GibcoBRL) supplemented with 0.1% bovine serum albumin (BSA)). Then, 100 μl of the assay buffer containing a test sample were added to the well and incubated at 37° C. under 5% CO2 for one hour. Subsequently, 100 μl/well of cell fixation solution (PBS containing 4% paraformaldehyde (Ca/Mg free)) were added to the well and stood at room temperature for 30 minutes. After removing the cell fixation solution and washing the cells with Ca/Mg free PBS, a labeling solution (3.13 μg/ml of wheat germ aggulutinin (Molecular Probe, W-849) and 5 μg/ml of Hoechst-containing Ca/Mg free PBS) was added (50 μl/well) and stood at room temperature for 20 minutes. After removing the labeling solution, the cells were washed with Ca/Mg free PBS (200 μl/well) to replace the same (200 μl/well). […]

[1] = system: FPRL1-GFP fusion protein-expressing CHO cells; assay: Cell migration stimulating activity to FPRL1-GFP fusion protein-expressing CHO cells; assay type: cell-based, human; settings: chemotaxis chamber, 37° C., 4 hours, FIG. 24
Procedure: Using FPRL1-GFP fusion protein-expressing CHO cells, which are described in Example 18, a cell migration activity of the above cells by stimulation using formylated peptide was investigated.
The 96-well disposable chemotaxis chamber (ChemoTx-96, Neuro Probe) was used for assay. Firstly, to bottom well of the chamber, a test sample diluted with DMEM (Invitrogen) containing 0.5% BSA was added. Then, a polycarbonate filter, which is precoated with 10 μg/ml bovine fibronectin (Yagai) on both sides, was fixed on the chamber, and contacted with the test sample. Next, suspension for FPRL1-GFP fusion protein-expressing CHO cells was put onto the filter at 96-well site as a droplet. The chamber was covered, and cultured at 37° C. for 4 hours under conditions of 5% CO2. The cell suspension was prepared as follows: the aforementioned CHO cells at growth phase, which had been precultured in 150 cm^2 flask for culture, were peal off using trypsin/EDTA; the cell suspension obtained was centrifuged to get cell precipitation; and after washing with PBS once, the cells were resuspended in DMEM medium containing 0.5% BSA at the concentration of 3.6×10^6 cells/ml. […] For this filter, absorbance at 595 nm was measured using microplate reader.

human FPRL1 = target: T1, human FPRL1 (Homo sapiens, UniProt P25090); assay: Inhibiting activity for intracellular cAMP production in human FPRL1-expressing CHO cells; assay type: cell-based; settings: comparison of purified ligand and chemical preparation, FIG. 14
T1 construct: expressed in transfected cells; host or cells: CHO cells (clone No. 8)
T1 sequence (P25090 1-351): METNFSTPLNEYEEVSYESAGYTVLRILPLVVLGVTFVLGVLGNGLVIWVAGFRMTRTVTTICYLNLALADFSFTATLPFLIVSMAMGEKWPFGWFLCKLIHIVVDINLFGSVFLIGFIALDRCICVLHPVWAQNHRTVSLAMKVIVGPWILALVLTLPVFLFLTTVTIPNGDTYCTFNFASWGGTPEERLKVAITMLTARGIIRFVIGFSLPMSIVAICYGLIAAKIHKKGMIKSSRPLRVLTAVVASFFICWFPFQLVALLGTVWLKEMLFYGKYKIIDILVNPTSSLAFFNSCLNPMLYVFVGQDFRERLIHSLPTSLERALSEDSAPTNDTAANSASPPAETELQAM
Text: The term “Peptide (nM)” on horizontal axis and “Inhibition (5)” on vertical axis means a concentration of peptide (nM) and an inhibiting activity for intracellular cAMP production (Inhibition (%)), respectively. Closed triangle represents an activity of the intrinsic FPRL1 ligand P1, which has been purified in Example 7. It is derived from fr. 24-25 of the final purified preparation uRPC C2/C18 SC2.1/10. The concentration for peptide is deduced from the absorbance at 215 nm of final purification chromatogram. Closed circle indicates an activity of 16 amino acid peptide containing N-terminal fifteen amino acids of porcine cytochrome B, at which synthetic N-terminus is formylated (formyl-MTNIRKSHPLMKIINN).
Activity of porcine intrinsic FPRL1 ligand P1, which was purified in Example 7, and activity of 16 amino acid-peptide (formyl-MTNIRKSHPLMKIINN, SEQ ID NO: 18), comprising 15 amino acids at N-terminus of N-terminally formylated porcine cytochrome B, wherein the sequence was deduced from structure analysis, were compared using an inhibiting activity for intracellular cAMP production in human […] CHO cells as an index (FIG. 14).

Compound | intracellular transition of FPRL1-GFP protein (MemCyto Above Threshold) (FPRL1-GFP fusion protein) | cell migration stimulating activity (absorbance at 595 nm) [1] | inhibiting activity for intracellular cAMP production (human FPRL1)
CSCC[C@H](NC=O)C(=O)N[C@@H](Cc1ccccc1)C(=O)N[C@@H](C)C(=O)N[C@@H](CC(=O)O)C(=O)N[C@@H](CCCNC(=N)N)C(=O)N[C@@H](Cc1c[nH]c2ccccc12)C(=O)N[C@@H](CC(C)C)C(=O)N[C@@H](Cc1ccccc1)C(=O)N[C@@H](CO)C(=O)N[C@H](C(=O)N[C@@H](CC(N)=O)C(=O)N[C@@H](Cc1c[nH]cn1)C(=O)N[C@@H](CCCCN)C(=O)O)[C@@H](C)O [hfCYOX-1(1-13)] (For-MFADRWLFSTNHK-OH; C-terminus assumed) | concentration-dependent transition of FPRL1-GFP protein from cell membrane to cytoplasm | bell-shaped dose-dependent cell migration stimulating activity | –
CSCC[C@H](NC=O)C(=O)N[C@@H](Cc1ccccc1)C(=O)N[C@H](C(=O)N[C@@H](CC(N)=O)C(=O)N[C@@H](CCCNC(=N)N)C(=O)N[C@@H](Cc1c[nH]c2ccccc12)C(=O)N[C@@H](CC(C)C)C(=O)N[C@@H](Cc1ccc(O)cc1)C(=O)N[C@@H](CO)C(=O)N[C@H](C(=O)N[C@@H](CC(N)=O)C(=O)N[C@@H](Cc1c[nH]cn1)C(=O)N[C@@H](CCCCN)C(=O)O)[C@@H](C)O)C(C)C [pfCYOX-1(1-13)] (For-MFVNRWLYSTNHK-OH; C-terminus assumed) | concentration-dependent transition of FPRL1-GFP protein from cell membrane to cytoplasm | bell-shaped dose-dependent cell migration stimulating activity | –
CHO-Met-Thr-Asn-Ile-Arg-Lys-Ser-His-Pro-Leu-Met-Lys-Ile-Ile-Asn ({CHO}-MTNIRKSHPLMKIIN) [porcine intrinsic FPRL1 ligand P1, purified from porcine stomach; N-terminal peptide of N-formylated porcine cytochrome b] | – | – | both activities are equivalent
formyl-MTNIRKSHPLMKIINN (For-MTNIRKSHPLMKIINN) [16 amino acid-peptide comprising 15 amino acids at N-terminus of N-terminally formylated porcine cytochrome B] | – | – | both activities are equivalent
